Laboratory results published in PubChem BioAssay AID2060495 (Molecular Pharmacology Branch, DTP, NCI, 2025).

System: 521955-158-R2-J5-PDC complex spheroid viability
Experiment: Anticancer human tumor 521955-158-R2-J5-PDC patient-derived pancreatic carcinoma cell line growth inhibition [GQUAD]
Conditions: for IC50: curve of first compound; for viability, T/C: stronger effect = lower value; active means viability on the fitted dose curve at most 10% of control; inactive means the rest
In short: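 Tumor cells were grown as complex spheroids with HUVEC endothelial cells and mesenchymal stem cells as stroma. G-quadruplex stabilizers were combined with targeted agents over half-log dilutions from near the clinical Cmax, or from 10 microM.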

[1] = second compound 0.0316 µM, first compound 0.0316 µM
[2] = second compound 0.0316 µM, first compound 0.316 µM
[3] = second compound 0.1 µM, first compound 0.0316 µM
[4] = second compound 0.1 µM, first compound 0.316 µM
[5] = second compound 0.316 µM, first compound 0.0316 µM
[6] = second compound 0.316 µM, first compound 0.316 µM
[7] = second compound 1 µM, first compound 0.0316 µM
[8] = second compound 1 µM, first compound 0.316 µM
[9] = second compound 3.16 µM, first compound 0.0316 µM
[10] = second compound 3.16 µM, first compound 0.316 µM
[11] = second compound 10 µM, first compound 0.0316 µM
[12] = second compound 10 µM, first compound 0.316 µM
[13] = second compound 0.0316 µM, first compound 0.1 µM
[14] = second compound 0.0316 µM, first compound 1 µM
[15] = second compound 0.0316 µM, first compound 3.16 µM
[16] = second compound 0.0316 µM, first compound 10 µM
[17] = second compound 0.1 µM, first compound 0.1 µM
[18] = second compound 0.1 µM, first compound 1 µM
[19] = second compound 0.1 µM, first compound 3.16 µM
[20] = second compound 0.1 µM, first compound 10 µM
[21] = second compound 0.316 µM, first compound 0.1 µM
[22] = second compound 0.316 µM, first compound 1 µM
[23] = second compound 0.316 µM, first compound 3.16 µM
[24] = second compound 0.316 µM, first compound 10 µM
[25] = second compound 1 µM, first compound 0.1 µM
[26] = second compound 1 µM, first compound 1 µM
[27] = second compound 1 µM, first compound 3.16 µM
[28] = second compound 1 µM, first compound 10 µM
[29] = second compound 3.16 µM, first compound 0.1 µM
[30] = second compound 3.16 µM, first compound 1 µM
[31] = second compound 3.16 µM, first compound 3.16 µM
[32] = second compound 3.16 µM, first compound 10 µM
[33] = second compound 10 µM, first compound 0.1 µM
[34] = second compound 10 µM, first compound 1 µM
[35] = second compound 10 µM, first compound 3.16 µM
[36] = second compound 10 µM, first compound 10 µM
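Further: spheroids exposed to agents for one week before reading.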
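Wherever viability, T/C is given: 100% = DMSO vehicle control viability.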

CCc1c2c(nc3ccc(O)cc13)-c1cc3c(c(=O)n1C2)COC(=O)[C@]3(O)CC + Cc1[nH]c2ccc(F)cc2c1-c1nc2c3cccnc3c3ncccc3c2[nH]1
1.57 nM: IC50 (second compound 0.1 µM)
1.48 nM: IC50 (second compound 1 µM)
active: viability, T/C (second compound 0.0316 µM, first compound 0.00999 µM) 8.08% | viability, T/C [1] 6.13% | viability, T/C (second compound 0.0316 µM, first compound 0.0999 µM) 5.29% | viability, T/C [2] 2.46% | viability, T/C (second compound 0.1 µM, first compound 0.00999 µM) 8.38% | viability, T/C [3] 6.85% | viability, T/C (second compound 0.1 µM, first compound 0.0999 µM) 5.08% | viability, T/C [4] 3.05% | viability, T/C (second compound 0.316 µM, first compound 0.00999 µM) 7.87% | viability, T/C [5] 5.41% | viability, T/C (second compound 0.316 µM, first compound 0.0999 µM) 5.92% | viability, T/C [6] 2.25% | viability, T/C (second compound 1 µM, first compound 0.00999 µM) 7.26% | viability, T/C [7] 5.78% | viability, T/C (second compound 1 µM, first compound 0.0999 µM) 5.91% | viability, T/C [8] 1.75% | viability, T/C (second compound 3.16 µM, first compound 0.00999 µM) 8.66% | viability, T/C [9] 7.44% | viability, T/C (second compound 3.16 µM, first compound 0.0999 µM) 3.96% | viability, T/C [10] 2.23% | viability, T/C (second compound 10 µM, first compound 0.00999 µM) 11.9% | viability, T/C [11] 8.45% | viability, T/C (second compound 10 µM, first compound 0.0999 µM) 5.37% | viability, T/C [12] 2.72%
1.52 nM: IC50 (second compound 0.316 µM)
1.44 nM: IC50 (second compound 0.0316 µM)
1.81 nM: IC50 (second compound 3.16 µM)
1.61 nM: IC50 (second compound 10 µM)
inactive: viability, T/C (second compound 0.0316 µM, first compound 0.000999 µM) 66.5% | viability, T/C (second compound 0.0316 µM, first compound 0.00316 µM) 14.4% | viability, T/C (second compound 0.1 µM, first compound 0.000999 µM) 73.5% | viability, T/C (second compound 0.1 µM, first compound 0.00316 µM) 13.8% | viability, T/C (second compound 0.316 µM, first compound 0.000999 µM) 70.8% | viability, T/C (second compound 0.316 µM, first compound 0.00316 µM) 13.3% | viability, T/C (second compound 1 µM, first compound 0.000999 µM) 69.9% | viability, T/C (second compound 1 µM, first compound 0.00316 µM) 11.7% | viability, T/C (second compound 3.16 µM, first compound 0.000999 µM) 83.5% | viability, T/C (second compound 3.16 µM, first compound 0.00316 µM) 18.2% | viability, T/C (second compound 10 µM, first compound 0.000999 µM) 72.8% | viability, T/C (second compound 10 µM, first compound 0.00316 µM) 16.9%

CC(C)(O)C1CCC(Nc2ccc3ncc(-c4cccc(C(F)(F)F)c4)n3n2)CC1 (stereo not drawn) + Cc1[nH]c2ccc(F)cc2c1-c1nc2c3cccnc3c3ncccc3c2[nH]1
2050 nM: IC50 (second compound 0.0316 µM)
2010 nM: IC50 (second compound 0.316 µM)
inactive: viability, T/C [1] 93.5% | viability, T/C [13] 109% | viability, T/C [2] 101% | viability, T/C [14] 125% | viability, T/C [15] 15.5% | viability, T/C [16] 10.8% | viability, T/C [3] 102% | viability, T/C [17] 107% | viability, T/C [4] 103% | viability, T/C [18] 117% | viability, T/C [19] 11.3% | viability, T/C [20] 11.7% | viability, T/C [5] 107% | viability, T/C [21] 100% | viability, T/C [6] 102% | viability, T/C [22] 116% | viability, T/C [23] 12.6% | viability, T/C [24] 14.7% | viability, T/C [7] 95.8% | viability, T/C [25] 94.3% | viability, T/C [8] 102% | viability, T/C [26] 121% | viability, T/C [27] 11.7% | viability, T/C [28] 11.9% | viability, T/C [9] 91.2% | viability, T/C [29] 79.3% | viability, T/C [10] 92.9% | viability, T/C [30] 113% | viability, T/C [31] 16.5% | viability, T/C [32] 10.7% | viability, T/C [11] 83.2% | viability, T/C [33] 87.8% | viability, T/C [12] 102% | viability, T/C [34] 126%
1990 nM: IC50 (second compound 0.1 µM)
1890 nM: IC50 (second compound 10 µM)
1930 nM: IC50 (second compound 3.16 µM)
active: viability, T/C [35] 9.89% | viability, T/C [36] 9.4%
1960 nM: IC50 (second compound 1 µM)

CC(C)n1c(=O)n(C)c2cnc3cc(F)c(-c4ccc(OCCCN5CCCCC5)nc4)cc3c21 + Cc1cnc(CNC(=O)c2c(=O)c3ccc(N4CCCN(C)CC4)nc3n3c2sc2ccccc23)cn1
< 31.6 nM: IC50 (second compound 0.316 µM) | IC50 (second compound 1 µM) | IC50 (second compound 3.16 µM) | IC50 (second compound 10 µM)
inactive: viability, T/C [1] 60.1% | viability, T/C [13] 53.2% | viability, T/C [2] 70.5% | viability, T/C [14] 56% | viability, T/C [15] 76.2% | viability, T/C [16] 74.9% | viability, T/C [3] 44.2% | viability, T/C [17] 60.9% | viability, T/C [4] 62.2% | viability, T/C [18] 54.1% | viability, T/C [19] 49.7% | viability, T/C [20] 56.6% | viability, T/C [5] 31.7% | viability, T/C [21] 31.4% | viability, T/C [6] 42.6% | viability, T/C [22] 40.4% | viability, T/C [23] 36.7% | viability, T/C [24] 41.7% | viability, T/C [7] 20% | viability, T/C [25] 22.5% | viability, T/C [8] 19.5% | viability, T/C [26] 20% | viability, T/C [27] 22.1% | viability, T/C [28] 26.8% | viability, T/C [9] 19.1% | viability, T/C [29] 17.9% | viability, T/C [10] 19.6% | viability, T/C [30] 21.1% | viability, T/C [31] 24.6% | viability, T/C [32] 20.4% | viability, T/C [11] 17.7% | viability, T/C [33] 19.4% | viability, T/C [12] 18.9% | viability, T/C [34] 20% | viability, T/C [35] 21.1% | viability, T/C [36] 21.8%
> 10000 nM: IC50 (second compound 0.0316 µM) | IC50 (second compound 0.1 µM)

O=C(NO)c1cnc(N2CCN(S(=O)(=O)c3ccc4ccccc4c3)CC2)nc1 + CN(C)c1ccc(Nc2c3ccc(NC(=O)CCN4CCCC4)cc3nc3cc(NC(=O)CCN4CCCC4)ccc23)cc1
491 nM: IC50 (second compound 0.316 µM)
inactive: viability, T/C [1] 127% | viability, T/C [13] 105% | viability, T/C [2] 95.3% | viability, T/C [14] 30.6% | viability, T/C [3] 120% | viability, T/C [17] 124% | viability, T/C [4] 94.7% | viability, T/C [18] 26% | viability, T/C [5] 118% | viability, T/C [21] 115% | viability, T/C [6] 58% | viability, T/C [22] 31.6% | viability, T/C [7] 121% | viability, T/C [25] 116% | viability, T/C [8] 60.9% | viability, T/C [26] 37% | viability, T/C [9] 109% | viability, T/C [29] 142% | viability, T/C [10] 87.5% | viability, T/C [30] 37.7% | viability, T/C [11] 94% | viability, T/C [33] 94.1% | viability, T/C [12] 53.7% | viability, T/C [34] 17.1%
active: viability, T/C [15] 0.19% | viability, T/C [16] 0.15% | viability, T/C [19] 0.16% | viability, T/C [20] 0.1% | viability, T/C [23] 0.13% | viability, T/C [24] 0.12% | viability, T/C [27] 0.15% | viability, T/C [28] 0.12% | viability, T/C [31] 0.28% | viability, T/C [32] 0.13% | viability, T/C [35] 0.27% | viability, T/C [36] 0.21%
703 nM: IC50 (second compound 0.0316 µM)
668 nM: IC50 (second compound 0.1 µM)
376 nM: IC50 (second compound 10 µM)
734 nM: IC50 (second compound 3.16 µM)
550 nM: IC50 (second compound 1 µM)
